How the values were obtained:
[1] = target: T1, human recombinant serotonin (5-Hydroxytryptamine) 5-HT2A receptor (Homo sapiens, UniProt P28223); test: Serotonin 5-HT2A radioligand binding ([3H]Ketanserin); details: compound at 0.1 μM; read-out: Inhibition of ligand binding, Serotonin 5-HT2A (percent inhibition of specific binding)
T1 construct: expressed in transfected cells; host or cells: CHO-K1
Procedure: Compounds of the invention were incubated with 0.5 nM [^3H]Ketanserin for 60 min at 25° C. Non-specific binding was estimated in the presence of 1 μM Mianserin. Receptor proteins were filtered and washed, the filters were then counted to determine [^3H]Ketanserin specifically bound.

[2] = target: T2, human recombinant serotonin (5-Hydroxytryptamine) 5-HT2C receptor (Homo sapiens, UniProt P28335); test: Serotonin 5-HT2C radioligand binding ([3H]Mesulergine); details: compound at 0.1 μM; read-out: Inhibition of ligand binding, Serotonin 5-HT2C (percent inhibition of specific binding)
T2 construct: expressed in transfected cells; host or cells: CHO-K1
T2 sequence (P28335 33-458): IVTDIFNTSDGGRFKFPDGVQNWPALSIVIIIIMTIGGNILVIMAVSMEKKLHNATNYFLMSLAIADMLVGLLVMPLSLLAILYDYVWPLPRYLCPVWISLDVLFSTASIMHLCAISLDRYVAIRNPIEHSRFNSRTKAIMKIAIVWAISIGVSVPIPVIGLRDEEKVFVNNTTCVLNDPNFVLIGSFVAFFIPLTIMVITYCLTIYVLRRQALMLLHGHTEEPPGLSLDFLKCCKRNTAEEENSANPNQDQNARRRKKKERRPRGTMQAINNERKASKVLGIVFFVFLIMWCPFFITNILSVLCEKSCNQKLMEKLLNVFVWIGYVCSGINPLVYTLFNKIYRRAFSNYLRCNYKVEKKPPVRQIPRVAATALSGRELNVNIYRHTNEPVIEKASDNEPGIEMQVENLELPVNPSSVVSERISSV
Procedure: Compounds of the invention were incubated with 1 nM [^3H]Mesulergine for 60 min at 25° C. Non-specific binding was estimated in the presence of 1 μM Mianserin. Receptor proteins were filtered and washed, the filters were then counted to determine [^3H]Mesulergine specifically bound.

[3] = target: T3, human recombinant adrenergic α2C receptor (Homo sapiens, UniProt P18825); test: Adrenergic α2C radioligand binding ([3H]MK-912); details: read-out: Adrenergic (0.1 μM) a2C, percent inhibition of specific binding; compound at 0.1 μM; 1 nM [3H]MK-912
T3 construct: expressed in transfected cells; host or cells: insect Sf9 cells
T3 sequence (P18825 1-462): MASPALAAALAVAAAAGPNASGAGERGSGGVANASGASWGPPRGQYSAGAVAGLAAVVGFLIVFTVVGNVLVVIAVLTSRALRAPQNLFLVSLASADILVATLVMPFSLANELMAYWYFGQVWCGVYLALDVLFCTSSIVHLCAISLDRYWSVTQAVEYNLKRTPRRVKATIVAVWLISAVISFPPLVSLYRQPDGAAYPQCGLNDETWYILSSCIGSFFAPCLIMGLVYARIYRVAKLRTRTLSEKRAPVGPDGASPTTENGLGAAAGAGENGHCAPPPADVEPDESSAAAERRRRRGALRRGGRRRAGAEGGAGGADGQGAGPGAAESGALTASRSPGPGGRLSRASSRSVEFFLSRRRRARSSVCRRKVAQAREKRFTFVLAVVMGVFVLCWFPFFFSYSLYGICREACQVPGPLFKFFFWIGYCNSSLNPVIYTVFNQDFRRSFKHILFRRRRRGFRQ
In short: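 Membranes from Sf9 cells expressing the human receptor, in 50 mM Tris-HCl pH 7.4 with 12.5 mM MgCl2 and 2 mM EDTA, incubated with compound and 1 nM [3H]MK-912 for 60 min at 25 °C. Non-specific binding defined with 10 μM WB-4101. Filter-bound radioactivity counted; percent inhibition of specific binding reported.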

[4] = target: T4, rat adrenergic α1A receptor (Rattus norvegicus, UniProt P43140); test: Adrenergic α1A radioligand binding ([3H]Prazosin); details: read-out: Adrenergic (0.1 μM) a1A, percent inhibition of specific binding; compound at 0.1 μM; 0.25 nM [3H]Prazosin
T4 construct: rat adrenergic α1A receptor obtained from Wistar Rat submaxillary glands; from tissue; host or cells: Wistar rat submaxillary glands
T4 sequence (P43140 1-466): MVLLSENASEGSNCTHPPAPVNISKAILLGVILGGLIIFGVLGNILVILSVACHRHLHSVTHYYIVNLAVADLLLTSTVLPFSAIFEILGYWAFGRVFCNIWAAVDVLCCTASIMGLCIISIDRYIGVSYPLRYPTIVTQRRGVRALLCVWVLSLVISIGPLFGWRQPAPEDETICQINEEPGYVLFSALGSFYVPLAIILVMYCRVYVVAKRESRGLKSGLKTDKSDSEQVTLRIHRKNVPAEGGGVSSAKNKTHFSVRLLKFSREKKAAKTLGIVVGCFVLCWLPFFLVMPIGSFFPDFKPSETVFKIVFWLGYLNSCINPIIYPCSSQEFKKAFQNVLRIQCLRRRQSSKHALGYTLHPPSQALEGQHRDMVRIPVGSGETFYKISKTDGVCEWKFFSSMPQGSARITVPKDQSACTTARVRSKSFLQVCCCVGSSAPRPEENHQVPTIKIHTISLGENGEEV
In short: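 Wistar rat submaxillary gland receptor in 50 mM Tris-HCl pH 7.4 with 0.5 mM EDTA, incubated with compound and 0.25 nM [3H]Prazosin for 60 min at 25 °C.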

[5] = target: T5, human recombinant serotonin (5-Hydroxytryptamine) 5-HT5A receptor (Homo sapiens, UniProt P47898); test: Serotonin 5-HT5A radioligand binding ([3H]LSD); details: compound at 0.1 μM; read-out: Inhibition of ligand binding, Serotonin 5-HT5A (percent inhibition of specific binding)
T5 construct: expressed in transfected cells; host or cells: CHO-K1
Procedure: Compounds of the invention were incubated with 1.7 nM [^3H]Lysergic acid diethylamide (LSD) for 60 min at 37° C. […] Receptor proteins were filtered and washed, the filters were counted to determine [^3H]LSD specifically bound.

T1 sequence (P28223 whole entry): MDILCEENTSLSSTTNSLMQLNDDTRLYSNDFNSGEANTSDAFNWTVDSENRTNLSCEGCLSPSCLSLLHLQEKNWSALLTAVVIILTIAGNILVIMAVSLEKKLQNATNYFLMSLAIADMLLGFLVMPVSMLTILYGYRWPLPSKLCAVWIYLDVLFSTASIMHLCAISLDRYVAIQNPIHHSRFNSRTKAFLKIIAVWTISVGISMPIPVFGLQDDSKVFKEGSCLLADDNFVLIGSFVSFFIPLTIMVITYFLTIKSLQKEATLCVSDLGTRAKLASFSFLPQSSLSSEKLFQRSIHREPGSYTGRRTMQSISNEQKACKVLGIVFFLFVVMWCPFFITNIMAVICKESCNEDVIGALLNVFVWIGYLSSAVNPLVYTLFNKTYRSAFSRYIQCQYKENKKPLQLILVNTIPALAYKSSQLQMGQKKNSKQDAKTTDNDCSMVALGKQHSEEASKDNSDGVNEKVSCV
T5 sequence (P47898 whole entry): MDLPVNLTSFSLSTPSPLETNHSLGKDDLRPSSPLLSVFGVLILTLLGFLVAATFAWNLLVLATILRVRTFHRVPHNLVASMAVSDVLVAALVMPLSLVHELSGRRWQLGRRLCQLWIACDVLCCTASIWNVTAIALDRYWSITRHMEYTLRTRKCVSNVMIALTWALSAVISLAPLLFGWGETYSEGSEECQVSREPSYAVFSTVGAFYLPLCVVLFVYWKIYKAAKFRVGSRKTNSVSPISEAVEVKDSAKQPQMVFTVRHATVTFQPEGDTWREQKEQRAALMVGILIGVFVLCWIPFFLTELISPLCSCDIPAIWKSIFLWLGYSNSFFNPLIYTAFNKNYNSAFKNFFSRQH

Structure (SMILES) | inhibition at 0.1 µM [1] | inhibition at 0.1 µM [2] | inhibition at 0.1 µM [3] | inhibition at 0.1 µM [4] | inhibition at 0.1 µM [5]
CNC(=O)c1cccc(-c2cscc2-n2c3c(c4cc(C)ccc42)CN(C)CC3)c1 [Compound No. 154] | 83% | 67% | 3% | 28% | 85%
Cc1ccc2c(c1)c1c(n2-c2cccc(-c3cn[nH]c3)c2)CCN(C)C1 [Compound No. 70, 5-(3-(1H-pyrazol-4-yl)phenyl)-2,8-dimethyl-2,3,4,5-tetrahydro-1H-pyrido[4,3-b]indole] | 98% | 81% | 8% | 5% | 43%
COc1ccc(-c2cscc2-n2c3c(c4cc(C)ccc42)CN(C)CC3)cc1 [Compound 37] | 59% | 81% | 72% | 82% | 94%
Cc1ccc2c(c1)c1c(n2-c2ccc(-c3cnc(N(C)C)nc3)cn2)CCN(C)C1 [Compound No. 138, 5-(6-(2,8-dimethyl-3,4-dihydro-1H-pyrido[4,3-b]indol-5(2H)-yl)pyridin-3-yl)-N,N-dimethylpyrimidin-2-amine] | 83% | 86% | -2% | 32% | 13%
Cc1ccc2c(c1)c1c(n2-c2cccc(-c3ccnn3C)c2)CCN(C)C1 [Compound No. 66, 2,8-dimethyl-5-(3-(1-methyl-1H-pyrazol-5-yl)phenyl)-2,3,4,5-tetrahydro-1H-pyrido[4,3-b]indole] | 90% | 55% | 8% | 1% | 36%
Cc1csc(-c2ccc(-n3c4c(c5cc(C)ccc53)CN(C)CC4)nc2)c1 [Compound No. 144, 2,8-dimethyl-5-(5-(4-methylthiophen-2-yl)pyridin-2-yl)-2,3,4,5-tetrahydro-1H-pyrido[4,3-b]indole] | 103% | 100% | 49% | 27% | 38%
Cc1ccc2c(c1)c1c(n2-c2ccc(-c3cccnc3)cn2)CCN(C)C1 [Compound No. 133, 5-(3,3′-bipyridin-6-yl)-2,8-dimethyl-2,3,4,5-tetrahydro-1H-pyrido[4,3-b]indole] | 86% | 92% | 0% | 21% | 6%
Cc1ccc2c(c1)c1c(n2-c2cscc2-c2cc3ccccc3s2)CCN(C)C1 [Compound No. 151] | 32% | 47% | 52% | 64% | 102%
Cc1ccc2c(c1)c1c(n2-c2cscc2-c2ccnn2C)CCN(C)C1 [Compound No. 150] | 53% | 64% | 10% | 36% | 65%
Cc1ccc2c(c1)c1c(n2-c2cccc(-c3ccc4[nH]cnc4c3)c2)CCN(C)C1 [Compound 54, 5-(3-(1H-benzo[d]imidazol-5-yl)phenyl)-2,8-dimethyl-2,3,4,5-tetrahydro-1H-pyrido[4,3-b]indole] | 92% | 21% | 12% | -7% | 33%
Cc1ccc2c(c1)c1c(n2-c2ccc(-c3ccc4c(ccn4C)c3)cn2)CCN(C)C1 [Compound No. 136, 2,8-dimethyl-5-(5-(1-methyl-1H-indol-5-yl)pyridin-2-yl)-2,3,4,5-tetrahydro-1H-pyrido[4,3-b]indole] | 98% | 101% | 24% | 20% | 50%
Cc1ccc2c(c1)c1c(n2-c2cccc(-c3ccc(S(N)(=O)=O)cc3)c2)CCN(C)C1 [Compound No. 158, 3′-(2,8-dimethyl-3,4-dihydro-1H-pyrido[4,3-b]indol-5(2H)-yl)biphenyl-4-sulfonamide] | 91% | 47% | 0% | 4% | 62%
Cc1ccc2c(c1)c1c(n2-c2cscc2-c2cncc3ccccc23)CCN(C)C1 [Compound 34] | 57% | 54% | 5% | 4% | 56%
Cc1ccc2c(c1)c1c(n2-c2cccc(-c3sccc3C)c2)CCN(C)C1 [Compound 43, 2,8-dimethyl-5-(3-(3-methylthiophen-2-yl)phenyl)-2,3,4,5-tetrahydro-1H-pyrido[4,3-b]indole] | 102% | 8% | -16% | 13% | 39%
Cc1ccc2c(c1)c1c(n2-c2cccc(-c3cc4ccccc4s3)c2)CCN(C)C1 [Compound 51, 5-(3-(benzo[b]thiophen-2-yl)phenyl)-2,8-dimethyl-2,3,4,5-tetrahydro-1H-pyrido[4,3-b]indole] | 86% | 55% | -9% | -6% | 5%
CNC(=O)c1cc(-n2c3c(c4cc(C)ccc42)CN(C)CC3)cs1 [Compound No. 78] | 59% | 35% | 3% | 16% | 24%
Cc1ccc2c(c1)c1c(n2-c2cccc(-c3c(C)noc3C)c2)CCN(C)C1 [Compound No. 65, 4-(3-(2,8-dimethyl-3,4-dihydro-1H-pyrido[4,3-b]indol-5(2H)-yl)phenyl)-3,5-dimethylisoxazole] | 85% | 57% | 8% | 1% | 63%
Cc1ccc2c(c1)c1c(n2-c2ccc(-c3cnn(C)c3)cn2)CCN(C)C1 [Compound No. 134, 2,8-dimethyl-5-(5-(1-methyl-1H-pyrazol-4-yl)pyridin-2-yl)-2,3,4,5-tetrahydro-1H-pyrido[4,3-b]indole] | 88% | 96% | -2% | -2% | -4%

Source: patent US9187471B2, “Pyrido [4,3-b] indole and pyrido [3,4-b] indole derivatives and methods of use” (Medivation Technologies, Inc., priority 2010, dated 2015)
